Measured values: patent US8497352B2, “Use of Wnt5-α peptide derivates for the treatment of melanoma and gastric cancer” (Wntresearch AB, priority 2008, dated 2013)
“Also recorded” adds a separate entry of the source. Where no end group is shown, it is not given here. The star is where a group is joined. Boc = CC(C)(C)OC(=O)*; For = O=C*

Key:
[1] = system: A2058 melanoma cells; test: BD Matrigel invasion chamber assay, A2058 cells; assay type: cell-based, human
Protocol: (§1) Cell invasion was analyzed using the BD Matrigel™ invasion chamber assay (BD Biosciences, Bedford, Mass.). Prior to the initiation of each experiment, the cells were detached with Versene and re-suspended as single cells in serum-free RPMI medium. As indicated, cells were pre-incubated with the Box5 peptide (100 μM) or control solvent for 40 min with continuous agitation. An aliquot of the cell suspension containing 25,000 cells and 100 μM Box5 or control solvent was then added to the upper transwell chamber, and the lower chamber was filled with serum-containing (10%) medium. The invasion chambers were shaken horizontally for 5 min to ensure even distribution of the cells in suspension and subsequently across the membrane surface. The cells were allowed to invade for the periods of time indicated at 37° C. in a humidified atmosphere of 5% CO2. The medium was discarded and cells were fixed in 4% paraformaldehyde for 10 min. The cells were stained with 0.5% crystal violet in 20% methanol for 10 min and the non-invading cells on the inner side of the membrane were removed with a cotton-tipped applicator. The membrane was cut out of the chamber using a scalpel blade and the stained cells on the lower chamber side of the membrane were counted.

[2] = system: Wnt-5a-induced Ca^2+ signaling; test: Determination of cytosolic free calcium levels (fura-2) in A2058 cells; assay type: cell-based, human
Protocol: Cells grown on a glass cover slip were incubated with 4 μM fura-2/AM in culture medium for 30 minutes at 37° C. (Dejmek et al., 2006). After fura-2 loading of the cells, the cover slips were washed and mounted in a specially designed chamber to which was added a calcium-containing medium (136 mM NaCl, 4.7 mM KCl, 1.2 mM MgSO4, 1.1 mM CaCl2, 1.2 KH2PO4, 5 mM NaHCO3, 5.5 mM glucose and 20 mM Hepes, pH 7.4). The chamber was then placed in a system consisting of a NIKON Diaphot microscope connected to a Photon Technology International (PTI) imaging system. The cells were first allowed to rest for 10 minutes before any stimulation was performed. Fura-2 fluorescence was then recorded continuously from the cells before and after the stimulations with either Wnt-5a, endothelin-1 or charbacol (as indicated in the legend to FIG. 8) using an excitation wavelength rapidly alternating between 340 and 380 nm, while the emission wavelength was set at 510 nm. The fluorescence intensity ratios (340/380 nm) were subsequently calculated and analyzed using the PTI Image Master Software. Statistical analysis—The Student's t-test for unpaired samples was used to analyze differences in the experiments, where *=p<0.05, **=p<0.01, and ***=p<0.001

[3] = system: PKC; test: MARCKS phosphorylation (PKC activity) in A2058 cells, Western blot; assay type: cell-based, human; settings: 100 μM Box5 overnight, rWnt-5a 0.2 μg/ml
Protocol: The cells were either directly lysed in 1× Laemmli buffer containing DTT and boiled for 10 min, or lysed in buffer containing 50 mM Tris-HCl (pH 7.5), 1% Triton X-100, 100 mM NaCl, 10 mM MgCl2, 20% glycerol, 1 mM Na3VO4, and protease inhibitors (20 μg/ml aprotinin, 1 μg/ml leupeptin, 2.5 mM benzamidine, and 2 mM pefabloc). Cell treated with lysis buffer were centrifuged at 15,000 rpm for 5 min at 4° C. The protein content in each sample was determined and adjusted to ensure equal loading of protein in each lane. Thereafter, 50 mM DTT and 5× concentrated Laemmli buffer was added and the samples boiled for 5 min. The samples were separated by SDS polyacrylamide gel electrophoresis and subsequently transferred to PVDF membranes. For immunoblotting the membranes were blocked in PBS supplemented with 0.2% Tween 20 and 1% non-fat milk for Wnt-5a or 3% non-fat milk as for all other antibodies for 1 h. […] Finally, the Ab-antigen complexes were detected using enhanced chemiluminescence. […]
In the present study the level of PKC auto-phosphorylation (Weeraratna et al., 2002, Dissanayake et al., 2007) was not estimated since its relation to PKC kinase activity is unclear. Instead the effects of Wnt-5a and Box5 on the phosphorylation of the endogenous PKC substrate MARCKS were analyzed as a direct means of estimating the activity level of PKC in the melanoma cells. […]

[4] = system: HTB63 melanoma cells; test: Wound-healing assay (migration), HTB63 cells; assay type: cell-based, human
Protocol: (§2) Cells were plated in 12 well plates and allowed to grow into a confluent layer in complete RPMI (for A2058 cells) or complete McCoy's 5A medium (for HTB63 cells). As indicated, cells were pre-incubated with the Box5 peptide (100 μM) or control solvent for 40 min with continuous agitation. A wound was then inflicted by making a scratch through the confluent layer of cells with a pipette tip. During the migration period of the assay, cells were incubated either in serum-free medium or in the case of HTB63 cells in their own serum-free-conditioned medium collected from cells cultured for 48 h and used within 2 days after collection. The exact conditions of each experiment are described above. To avoid loss of activity, cell medium was changed after 24 hours. A picture for each scratch was taken in the same area of cells at 0, 16, 24, 40 and 48 hours, and wound healing was measured as percentage of wound area closed. For each experimental condition wound healing was analysed in triplicate. All data were based on 3 to 8 separate experiments as indicated.

[5] = system: A2058 melanoma cells; test: Wound-healing assay (migration), A2058 cells; assay type: cell-based, human
Protocol: as §2

[6] = system: HTB63 melanoma cells; test: BD Matrigel invasion chamber assay, HTB63 cells; assay type: cell-based, human
Protocol: as §1

[7] = system: Wnt-5a protein expression; test: Wnt-5a protein expression in HTB63 cells, Western blot; assay type: cell-based, human
Protocol: The cells were either directly lysed in 1× Laemmli buffer containing DTT and boiled for 10 min, or lysed in buffer containing 50 mM Tris-HCl (pH 7.5), 1% Triton X-100, 100 mM NaCl, 10 mM MgCl2, 20% glycerol, 1 mM Na3VO4, and protease inhibitors (20 μg/ml aprotinin, 1 μg/ml leupeptin, 2.5 mM benzamidine, and 2 mM pefabloc). Cell treated with lysis buffer were centrifuged at 15,000 rpm for 5 min at 4° C. The protein content in each sample was determined and adjusted to ensure equal loading of protein in each lane. Thereafter, 50 mM DTT and 5× concentrated Laemmli buffer was added and the samples boiled for 5 min. The samples were separated by SDS polyacrylamide gel electrophoresis and subsequently transferred to PVDF membranes. For immunoblotting the membranes were blocked in PBS supplemented with 0.2% Tween 20 and 1% non-fat milk for Wnt-5a or 3% non-fat milk as for all other antibodies for 1 h. Thereafter the membranes were incubated for 1 h at room temperature or overnight at 4° C. with the indicated primary Ab (1:25,000 for β-actin; 1:1,000 for Wnt-5a and 1:1,000 for TGF-β1) in 2% non-fat milk or 1.5% BSA. After extensive washing in PBS with 0.2% Tween, the membranes were incubated for 1 h with a horseradish peroxidase-conjugated secondary Ab in 2% non-fat milk or 1.5% BSA and again extensively washed. Finally, the Ab-antigen complexes were detected using enhanced chemiluminescence. […]

[8] = system: breast cancer cell; settings: breast tumor cells lacking endogenous Wnt-5a; cited from earlier work
[9] = system: breast cancer metastasis; settings: mouse model; cited from earlier work

Compound: t-boc-Met-Asp-Gly-Cys-Glu-Leu (Boc-MDGCEL) [Box5, novel Wnt-5a-derived N-butyloxycarbonyl hexapeptide (Met-Asp-Gly-Cys-Glu-Leu), Wnt-5a antagonist]
- Effect on Wnt-5a-induced invasion of A2058 cells ([1]; 100 μM Box5, 0.2 μg/ml Wnt-5a, 24 hours): abolished
- Effect on basal invasion of A2058 cells ([1]; 100 μM Box5, 24 hours): no effect
- Effect on charbacol-induced Ca^2+ signaling ([2]; 100 μM Box5, charbacol 5 μM): no significant effect
- Effect on endothelin-1-induced Ca^2+ signaling ([2]; 100 μM Box5, endothelin-1 10 nM): no significant effect
- Inhibition of Wnt-5a-induced Ca^2+ signal (peak values) ([2]; 100 μM Box5 overnight pre-incubation, 0.1 μg/ml Wnt-5a): more than 70%
- Effect on Wnt-5a-induced MARCKS phosphorylation [3]: inhibited; also recorded: abolished
- Effect on migration of HTB63 cells ([4]; 100 μM peptide in conditioned medium containing secreted Wnt-5a): inhibits
- Effect on Wnt-5a-induced migration of A2058 cells ([5]; 100 μM Box5, 0.2 μg/ml Wnt-5a, wound area closed over 0-48 hours): abolished
- Effect on intrinsic (basal) migration of A2058 cells ([5]; 100 μM Box5, no Wnt-5a, wound area closed over 0-48 hours): no effect
- Effect on TGF-β1-induced migration of A2058 cells ([5]; 100 μM Box5 pre-incubated 40 minutes, 5 ng/ml TGF-β1): abolished; also recorded: blocked
- Effect on invasion of HTB63 cells (endogenous Wnt-5a) ([6]; 100 μM Box5, 24 hours): inhibit

Compound: NC(=O)c1ccc(-c2nc(-c3ccc4c(c3)OCO4)c(-c3ccccn3)[nH]2)cc1 [SB431542]
- Effect on migration of HTB63 cells ([4]; 10 μM SB431542, serum-free medium): inhibited
- Endogenous Wnt-5a protein expression in HTB63 cells ([7]; 10 μM SB431542, 4 days): significantly reduced
- Endogenous Wnt-5a protein expression in HTB63 cells ([7]; 10 μM SB431542, 5 days): almost abolished
- Effect on migration of HTB63 cells in the invasion assay ([6]; 10 μM SB431542, 24 hours): stimulated

Compound: Foxy5: Met-Asp-Gly-Cys-Glu-Leu hexapeptide formylated at the N-terminal Met, agonist of Wnt-5a signalling (For-MDGCEL)
- Signaling and inhibition of breast cancer cell migration [8]: mimic the effects of Wnt-5a
- Effect on migration of A2058 cells ([5]; 50 μM Foxy5, 0, 16, 24, 40 and 48 hours): promotes
- Breast cancer metastasis [9]: inhibits
